According to patent US10195156B2, “Compounds and compositions for intracellular delivery of agents” (ModernaTX, Inc., priority 2015, dated 2019):

Legend:
[1] = Particle size and polydispersity index of nanoparticle compositions (Zetasizer Nano ZS); format: physicochemical; conditions: for particle size, rank within the named table (in words): comparison amongst compositions
Method: A Zetasizer Nano ZS (Malvern Instruments Ltd, Malvern, Worcestershire, UK) can be used to determine the particle size, the polydispersity index (PDI) and the zeta potential of the nanoparticle compositions in 1×PBS in determining particle size and 15 mM PBS in determining zeta potential.

[2] = Encapsulation efficiency of RNA (QUANT-IT RIBOGREEN RNA assay); format: physicochemical; conditions: for encapsulation efficiency, rank within the named table (in words): comparison amongst compositions
Method: For nanoparticle compositions including an RNA, a QUANT-IT™ RIBOGREEN® RNA assay (Invitrogen Corporation Carlsbad, Calif.) can be used to evaluate the encapsulation of an RNA by the nanoparticle composition. The samples are diluted to a concentration of approximately 5 μg/mL in a TE buffer solution (10 mM Tris-HCl, 1 mM EDTA, pH 7.5). 50 μL of the diluted samples are transferred to a polystyrene 96 well plate and either 50 μL of TE buffer or 50 μL of a 2% Triton X-100 solution is added to the wells. The plate is incubated at a temperature of 37° C. for 15 minutes. The RIBOGREEN® reagent is diluted 1:100 in TE buffer, and 100 μL of this solution is added to each well. The fluorescence intensity can be measured using a fluorescence plate reader (Wallac Victor 1420 Multilablel Counter; Perkin Elmer, Waltham, Mass.) at an excitation wavelength of, for example, about 480 nm and an emission wavelength of, for example, about 520 nm. The fluorescence values of the reagent blank are subtracted from that of each of the samples and the percentage of free RNA is determined by dividing the fluorescence intensity of the intact sample (without addition of Triton X-100) by the fluorescence value of the disrupted sample (caused by the addition of Triton X-100).

[3] = pKa of nanoparticle compositions; format: physicochemical
[4] = test system: luciferase (Luc) mRNA expression; assay: Expression of Luc induced by sample formulations, whole-body bioluminescence after intravenous administration; format: in vivo; conditions: mice, i.v., 0.5 mg/kg; for total flux / Luc expression, rank within the named table (in words): each time point
Method: In order to monitor how effectively various nanoparticle compositions deliver therapeutic and/or prophylactic agents to targeted cells, different nanoparticle compositions including a particular therapeutic and/or prophylactic agent (for example, a modified or naturally occurring RNA such as an mRNA) are prepared and administered to rodent populations. Mice are intravenously, intramuscularly, intraarterially, or intratumorally administered a single dose including a nanoparticle composition with a formulation such as those provided in Table 1. In some instances, mice may be made to inhale doses. Dose sizes may range from 0.001 mg/kg to 10 mg/kg, where 10 mg/kg describes a dose including 10 mg of a therapeutic and/or prophylactic agent in a nanoparticle composition for each 1 kg of body mass of the mouse. A control composition including PBS may also be employed.
Upon administration of nanoparticle compositions to mice, dose delivery profiles, dose responses, and toxicity of particular formulations and doses thereof can be measured by enzyme-linked immunosorbent assays (ELISA), bioluminescent imaging, or other methods. For nanoparticle compositions including mRNA, time courses of protein expression can also be evaluated. Samples collected from the rodents for evaluation may include blood, sera, and tissue (for example, muscle tissue from the site of an intramuscular injection and internal tissue); sample collection may involve sacrifice of the animals.
The efficacy of the nanoparticle compositions presented in Tables 1, 1a, 17-1, 19-1, 20-1 and 21-1 was evaluated with a bioluminescence study. Formulations were administered intravenously to mice (n=6) at a dosage of 0.5 mg/kg (mpk) and bioluminescence measured at 3, 6, and 24 hour time points. The standard MC3 formulation and a PBS control were evaluated for comparison.

[5] = test system: modified luciferase expression; assay: Expression of Luc in different organs (liver, lung, spleen, femur) 6 hours after intravenous administration; format: in vivo; conditions: i.v., 0.5 mpk; for total flux in organs, rank or organ comparison (in words): each organ or overall
Method: The efficacy of the nanoparticle compositions presented in Tables 1, 1a, 17-1, 19-1, 20-1 and 21-1 was further evaluated by measuring the expression of modified luciferase in the liver, lung, spleen, and femur upon administration of a given composition. Formulations were administered intravenously to mice (n=3) at a dosage of 0.5 mpk and bioluminescence measured after 6 hours. The standard MC3 formulation and a PBS control were also tested.

[6] = Table 1, rows without footnote mark (lipid:DOPE:cholesterol:PEG-DMG 40:20:38.5:1.5, Luc mRNA; MC3 standard formulation)
[7] = Table 1, rows without footnote mark
[8] = Table 1, * lipid:DSPC:Chol:PEG-DMG 50:10:38.5:1.5
[9] = Table 20-1, rows without footnote mark

With `CCCCCCCCCCCCN(CCCCCCCCCCCC)CCN1CCNCC1` [Compound 19-2, N-Dodecyl-N-(2-(piperazin-1-yl)ethyl)dodecan-1-amine] the PDI ([1]; Table 19-1) was 0.239, the “Size (nm)” value ([1]; Table 19-1) was 72.0 nm and the “EE (%)” value ([2]; Table 19-1) was 98.8%. The pKa ([3]; Table 19-1) was 7.32, the “Total Flux 3 hours” value ([4]; Table 19-2) was 1.96E+05 and the “Total Flux 6 hours” value ([4]; Table 19-2) was 3.51E+05. For the same molecule, the “Total Flux 24 hours” value ([4]; Table 19-2) was 2.29E+05, the “total flux / Luc expression, rank within the named table (in words)” value (shortened to “total flux / Luc expression”) [4] was “lowest total flux” and the “Total Flux Liver” value ([5]; Table 19-3, mice, liver) was 5.73E+04. The “Total Flux Lung” value ([5]; Table 19-3, mice) was 2.33E+04, the “Total Flux Spleen” value ([5]; Table 19-3, mice) was 3.56E+04 and the “total flux in the liver, rank within the named table (in words)” value ([5]; mice, liver) was “lowest total flux in the liver”.

With `CCCCCCCC/C=C\CCCCCCCCN(CCCCCCCC/C=C\CCCCCCCC)CCN(CCCCCCCC/C=C\CCCCCCCC)CCN1CCN(CCN(CCCCCCCC/C=C\CCCCCCCC)CCCCCCCC/C=C\CCCCCCCC)CC1` [Formula IV, N^1-(2-(4-(2-(Di((Z)-octadec-9-en-1-yl)amino)ethyl)piperazin-1-yl)ethyl)-N^1,N^2,N^2-tri((Z)-octadec-9-en-1-yl)ethane-1,2-diamine] the “Size (nm)” value [1, 6] was 94.2 nm, the “EE (%)” value [2, 7] was 97.6% and the pKa [3, 7] was 6.25. The “Total Flux Liver” value ([5]; Table 3, mice, liver) was 9.15E+08 and the “Total Flux Spleen” value ([5]; Table 3, mice) was 6.15E+08.

For `CCCCCCCCCCCCN(CCCCCCCCCCCC)CCN1CCN(Cc2ccc(OC)cc2)CC1` [Compound 19-5, N-Dodecyl-N-(2-(4-(4-methoxybenzyl)piperazin-1-yl)ethyl)dodecan-1-amine], the PDI ([1]; Table 19-1) was 0.204, the “Size (nm)” value ([1]; Table 19-1) was 106.9 nm and the “EE (%)” value ([2]; Table 19-1) was 93.6%. For the same molecule, the pKa ([3]; Table 19-1) was 6.32, the “Total Flux 3 hours” value ([4]; Table 19-2) was 2.37E+07 and the “Total Flux 6 hours” value ([4]; Table 19-2) was 1.44E+07. For the same molecule, the “Total Flux 24 hours” value ([4]; Table 19-2) was 2.76E+06, the “total flux / Luc expression” value [4] was “next highest flux” and the “Total Flux Liver” value ([5]; Table 19-3, mice, liver) was 5.99E+06. For the same molecule, the “Total Flux Lung” value ([5]; Table 19-3, mice) was 3.46E+04 and the “Total Flux Spleen” value ([5]; Table 19-3, mice) was 2.10E+05.

With `CCCCCCCCCCCCN(CCCCCCCCCCCC)CCN1CCN(CCN(CCCCCCCCCCCC)C(=O)CN(CCCCCCCCCCCC)CCCCCCCCCCCC)CC1` [Compound 1, 2-(Didodecylamino)-N-(2-(4-(2-(didodecylamino)ethyl)piperazin-1-yl)ethyl)-N-dodecylacetamide] the “Size (nm)” value [1, 6] was 203.2 nm, the “particle size, rank within the named table (in words)” value [1] was “largest particles” and the “EE (%)” value [2, 7] was 46.2%. For the same molecule, the “encapsulation efficiency, rank within the named table (in words)” value [2] was “lowest” and the pKa [3, 7] was 5.95.

In the case of `CCCCC/C=C\C/C=C\CCCCCCCCC1(CCCCCCCC/C=C\C/C=C\CCCCC)CCC(OC(=O)CCCN(C)C)C1` (centres unmarked) [Compound 21-4, 3,3-Di((9Z,12Z)-octadeca-9,12-dien-1-yl)cyclopentyl 4-(dimethylamino)butanoate], the PDI ([1]; Table 21-1) is reported as 0.193, the “Size (nm)” value ([1]; Table 21-1) is reported as 94.9 nm and the “EE (%)” value ([2]; Table 21-1) is reported as 98.8%. The pKa ([3]; Table 21-1) was 7.01, the “Total Flux 3 hours” value ([4]; Table 21-2) was 1.15E+09 and the “Total Flux 6 hours” value ([4]; Table 21-2) was 1.26E+09. For the same molecule, the “Total Flux 24 hours” value ([4]; Table 21-2) was 1.26E+09, the “Total Flux Liver” value ([5]; Table 21-3, mice, liver) was 9.89E+07 and the “Total Flux Lung” value ([5]; Table 21-3, mice) was 2.13E+05. For the same molecule, the “Total Flux Spleen” value ([5]; Table 21-3, mice) was 1.27E+07 and the “total flux in organs, rank or organ comparison (in words)” value ([5]; mice) was “lowest expression in each organ”.

In the case of `CCCCC/C=C\C/C=C\CCCCCCCCC1(CCCCCCCC/C=C\C/C=C\CCCCC)CC(OC(=O)CCCN(C)C)C1` [Compound 21-2, 3,3-Di((9Z,12Z)-octadeca-9,12-dien-1-yl)cyclobutyl 4-(dimethylamino)butanoate], the PDI ([1]; Table 21-1) is reported as 0.200, the “Size (nm)” value ([1]; Table 21-1) is reported as 83.0 nm and the “particle size, rank within the named table (in words)” value [1] is reported as “smallest particles”. The “EE (%)” value ([2]; Table 21-1) was 99.4%, the pKa ([3]; Table 21-1) was 6.98 and the “Total Flux 3 hours” value ([4]; Table 21-2) was 5.99E+08. The “Total Flux 6 hours” value ([4]; Table 21-2) was 8.09E+08, the “Total Flux 24 hours” value ([4]; Table 21-2) was 8.09E+08 and the “total flux / Luc expression” value [4] was “least expression at 3 and 6 hours”. The “Total Flux Liver” value ([5]; Table 21-3, mice, liver) was 5.50E+07, the “Total Flux Lung” value ([5]; Table 21-3, mice) was 2.53E+05 and the “Total Flux Spleen” value ([5]; Table 21-3, mice) was 1.56E+07. The “total flux in organs, rank or organ comparison (in words)” value ([5]; mice) was “lowest expression in each organ”.

For `CCCCC/C=C\C/C=C\CCCCCCCC1C(CCCCCCC/C=C\C/C=C\CCCCC)C1CN(C)C` (centres unmarked) [Compound 21-6, 1-(2,3-Di((8Z,11Z)-heptadeca-8,11-dien-1-yl)cyclopropyl)-N,N-dimethylmethanamine], the PDI ([1]; Table 21-1) was 0.110, the “Size (nm)” value ([1]; Table 21-1) was 86.8 nm and the “EE (%)” value ([2]; Table 21-1) was 98.9%. For the same molecule, the pKa ([3]; Table 21-1) was 6.99, the “Total Flux 3 hours” value ([4]; Table 21-2) was 2.92E+09 and the “Total Flux 6 hours” value ([4]; Table 21-2) was 4.54E+09. For the same molecule, the “Total Flux 24 hours” value ([4]; Table 21-2) was 1.40E+08, the “Total Flux Liver” value ([5]; Table 21-3, mice, liver) was 4.79E+08 and the “Total Flux Lung” value ([5]; Table 21-3, mice) was 2.09E+06. For the same molecule, the “Total Flux Spleen” value ([5]; Table 21-3, mice) was 1.94E+07.

For `CCCCCCCCCCCCN(CCO)CCCCCCCCCCCC` [Compound 17-11, 2-(Didodecylamino)ethan-1-ol], the PDI ([1]; Table 17-1) was 0.24, the “Size (nm)” value ([1]; Table 17-1) was 87.3 nm and the “EE (%)” value ([2]; Table 17-1) was 88.7%. For the same molecule, the pKa ([3]; Table 17-1) was 6.76, the “Total Flux 3 hours” value ([4]; Table 17-2) was 1.86E+06 and the “Total Flux 6 hours” value ([4]; Table 17-2) was 2.82E+06. The “Total Flux 24 hours” value ([4]; Table 17-2) was 2.70E+05, the “Total Flux Liver” value ([5]; Table 17-3, mice, liver) was 5.06E+05 and the “Total Flux Lung” value ([5]; Table 17-3, mice) was 1.20E+04. For the same molecule, the “Total Flux Spleen” value ([5]; Table 17-3, mice) was 3.37E+05.

In the case of `CCCCC/C=C\CCCCCN(CCCCCCCCCCCC)CCN1CCN(CCN(CCCCCCCCCCCC)CCN(CCCCCCCCCCCC)CCCCCCCCCCCC)CC1` [Compound 24, (Z)—N^1-(2-(4-(2-(Dodec-6-en-1-yl(dodecyl)amino)ethyl)piperazin-1-yl)ethyl)-N^1,N^2,N^2-tridodecylethane-1,2-diamine], the “Size (nm)” value ([1]; Table 1, * formulated with lipid:DSPC:Chol:PEG-DMG 50:10:38.5:1.5) is reported as 110.4 nm, the PDI [1, 8] is reported as 0.131 and the “EE (%)” value [2, 8] is reported as 36.4%. The “encapsulation efficiency, rank within the named table (in words)” value [2] was “lowest” and the pKa [3, 8] was 6.01.

With `CCCCCCCCCCCCN(CCO)CCN(CCCCCCCCCCCC)CCCCCCCCCCCC` [Compound 20-20, 2-((2-(Didodecylamino)ethyl)(dodecyl)amino)ethan-1-ol] the PDI [1, 9] was 0.159, the “Size (nm)” value [1, 9] was 86.8 nm and the “EE (%)” value [2, 9] was 95.2%. For the same molecule, the pKa [3, 9] was 6.41, the “Total Flux 3 hours” value ([4]; Table 20-2) was 4.56E+09 and the “Total Flux 6 hours” value ([4]; Table 20-2) was 3.27E+09. The “Total Flux 24 hours” value ([4]; Table 20-2) was 3.56E+08, the “Total Flux Liver” value ([5]; Table 20-3, mice, liver) was 8.92E+08 and the “Total Flux Lung” value ([5]; Table 20-3, mice) was 1.12E+06. The “Total Flux Spleen” value ([5]; Table 20-3, mice) was 1.39E+07.
